Data from patent publication US20240009174A1, “METHODS FOR DISRUPTING MITOCHONDRIAL UNFOLDED PROTEIN RESPONSE” (Health Research, Inc., priority 2020, published 2024).

Columns and labels:
HSP60-ClpP interaction [1] = biological target: T1, HSP60-ClpP interaction (Homo sapiens, UniProt P10809); assay: Proximity ligation assay (PLA) of HSP60-ClpP in PCa cells; format: cell-based; settings: data not shown
T1 construct: endogenous in cells
Method: Identification of novel inhibitor of HSP60-ClpP interaction that disrupts UPR^mt function and induces PCa cell death. Having shown that two arms of UPR^mt, HSP60 chaperonin and ClpP protease interact and play critical role in PCa cell survival, an in silico analysis was performed and a small molecule library (developed by Enamine Ltd) was screened to identify drugs targeting the apical domain of HSP60 critical for its interaction with ClpP. 9 compounds (A-I) were identified and screened for their cell death inducing potential in PCa cells (data not shown). […] Colony forming ability of PCa cells was inhibited by DCEM1 treatment (data not shown).

TKO prostate tumors = assay: Spontaneous prostate tumor in PTEN:Rb:p53 knockout (TKO) animals; format: in vivo, mice
Method: FIG. 8. Pharmacological inhibition of HSP60-ClpP inhibit oncogenic signaling and PCa tumor growth in vivo. (A) LNCaP, PC-3 and 22RV1 cells were treated with DCEM1 and analyzed for c-Myc and EZH2 protein expression after 24 hours of treatment. (B) LNCaP, 22RV1 and VCaP cells were treated with DCEM1 and analyzed for AR and PSA protein expression after 24 hours of treatment. (C-D) 22RV1 cells (1×10^6 cells) were mixed with matrigel (50:50 v/v) and injected into each flank of SCID mice and treated with DCEM1 (60 mg/kg bw) through IP route twice weekly and tumors were harvested, photographed (C) and weighed (D) at 30 days. (E) DEVDase activity were analyzed in 22RV1 xenograft tumor tissue following DCEM1 treatment and represented as fold change compared to control. (F) 22RV1 xenograft tissue were sectioned and expression of ki67, c-Myc and EZH2 proteins were analyzed by Immunohistochemistry as described in material and methods. (G-H) PC-3 cells (1×10^6 cells) were mixed with matrigel (50:50 v/v) and injected into each flank of SCID mice and treated with DCEM1 (60 mg/kg bw) through IP route twice weekly and tumors were harvested, photographed (G) and weighed (H) at 35 days. (I) DEVDase activity were analyzed in PC-3 xenograft tumor tissue following DCEM1 treatment and represented as fold change compared to control. (J) PC-3 xenograft tumor tissue were fixed and sections were used for in situ PLA to analyze HSP60-ClpP interaction in these tissue samples. (K) PBCre4:PTEN F/F: Rb F/F: p53 F/F (TKO) animals were treated with either vehicle (Normal saline: DMSO: Kolliphor HS15; 70:5:200 v/v) or DCEM1 (60 mg/kg bw in vehicle) twice weekly from 10 weeks of age. All animals were sacrificed at 16 weeks of age and whole genitourinary tract was harvested and weighed. (L) PBCre4:PTEN F/F: Rb F/F: p53 F/F (TKO) animals were treated with either vehicle (Normal saline:DMSO:Kolliphor HS15; 70:5:200 v/v) or DCEM1 (60 mg/kg bw in vehicle) twice weekly from 10 weeks of age. All animals were sacrificed at 16 weeks of age and imaged by MRI. (M) PBCre4:PTEN F/F: Rb F/F: p53 F/F (TKO) animals were treated with either vehicle (Normal saline:DMSO:Kolliphor HS15; 70:5:200 v/v) or DCEM1 (60 mg/kg bw in vehicle) twice weekly from 10 weeks of age. […] All animals were sacrificed at 16 weeks of age and prostate tissue and tumors were harvested, whole cell lysate were prepared and analyzed for HSP60 and ClpP expression (N); c-Myc and EZH2 expression (0) and SYP and CK 8/18 expression (P) by immunoblotting. […]
Ablation of HSP60-ClpP interaction by DCEM1 downregulates c-Myc, EZH2 and AR as well as inhibits tumor growth in vivo. […] The effect of DCEM1 on 22RV1 (AR positive) and PC-3 (AR negative) xenografts growth in SCID mice was analyzed. […]

HSP60-ClpP interaction [2] = biological target: T1, HSP60-ClpP interaction; assay: HSP60-ClpP co-immunoprecipitation assay in PCa cells; format: cell-based; settings: LNCaP and PC-3 cells, 24 hours
Method: (§1) FIG. 6. Pharmacological inhibition of HSP60-ClpP interaction induces UPR^mt and PCa cell death. (A) Docking of DCEM1 into apical domain of HSP60. (B) LNCaP and PC-3 cells were treated with DCEM1 for 24 hours and HSP60-ClpP interaction was analyzed by co-immunoprecipitation assay. (C) LNCaP and PC-3 cells were treated with DCEM1 for 24 hours and mitoROS levels were analyzed by flow cytometry using mitoSOX dye. (D) LNCaP and PC-3 cells were treated with DCEM1 for 24 hours and poly-Ub protein levels were analyzed by western blotting. (E) LNCaP and PC-3 cells were treated with DCEM1 for 24 and 48 hours and apoptotic cell populations were analyzed by flow cytometry using Annexin V FITC/PI method as explained in materials and methods. In (E) top panel, the bars in each series from left to right are control, 5, 10, and 20, and in (E) bottom panel, the bars in each series from left to right are DMSO, 5, 10, and 20. (F) LNCaP and PC-3 cells were treated with DCEM1 for 24 and 48 hours and lysates were prepared and analyzed for DEVDase activity using specific peptide substrate. […] (G) LNCaP and PC-3 cells were pre-treated with SKQ1 followed by DCEM1 treatment and analyzed for cell viability by MTT assay. (H) LNCaP and PC-3 cells were treated with either DCEM1 or H2O2 (200 μM) for 24 hours and total DNA were isolated and analyzed for mtDNA damage as described in materials and methods. […]

[3] = test system: HSP60, HSP10, ClpP and LONP1; assay: Expression of UPRmt components after DCEM1; format: cell-based; settings: PCa cells
LNCaP and PC-3 cells = assay: mtDNA damage analysis; format: cell-based; settings: 24 hours
Method: as §1

PC-3 cells = assay: Oxygen consumption rate (OCR); format: cell-based; settings: DCEM1 100 nM, 500 nM, 1 μM, 5 μM
[4] = 60 mg/kg bw twice weekly, 10 to 16 weeks of age, immunoblotting

T1 sequence (P10809 27-573): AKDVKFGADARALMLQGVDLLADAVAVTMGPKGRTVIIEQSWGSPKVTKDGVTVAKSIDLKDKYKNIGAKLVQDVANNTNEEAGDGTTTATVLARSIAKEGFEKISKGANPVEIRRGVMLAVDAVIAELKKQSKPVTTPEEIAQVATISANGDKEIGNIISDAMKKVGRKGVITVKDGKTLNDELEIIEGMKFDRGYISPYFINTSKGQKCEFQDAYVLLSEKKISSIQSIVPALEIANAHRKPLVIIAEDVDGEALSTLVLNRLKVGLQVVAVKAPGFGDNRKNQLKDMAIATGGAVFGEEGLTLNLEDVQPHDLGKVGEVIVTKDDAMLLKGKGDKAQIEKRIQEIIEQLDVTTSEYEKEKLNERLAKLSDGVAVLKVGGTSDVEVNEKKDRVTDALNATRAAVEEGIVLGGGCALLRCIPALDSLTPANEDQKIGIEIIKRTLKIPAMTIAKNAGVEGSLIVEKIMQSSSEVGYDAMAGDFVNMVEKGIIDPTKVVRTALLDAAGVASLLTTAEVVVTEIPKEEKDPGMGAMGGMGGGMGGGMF

CCOc1cc(CNCc2nc3ccccc3[nH]2)ccc1OCc1cccs1 [DCEM1]
HSP60-ClpP interaction by PLA (HSP60-ClpP interaction [1]): efficiently inhibited HSP60-ClpP interaction | prostate tumor growth in TKO mice (GU weight, tumor volume by MRI) (TKO prostate tumors; 60 mg/kg bw twice weekly from 10 weeks to 16 weeks of age): significantly inhibited prostate tumor growth | HSP60 and ClpP expression in TKO prostatic tissue (TKO prostate tumors; [4]): downregulated HSP60 and ClpP expression | SYP and CK 8/18 expression in TKO tumor tissues (TKO prostate tumors; [4]): downregulated SYP and up regulated CK 8/18 expression | c-Myc and EZH2 in TKO prostatic tissue (TKO prostate tumors; [4]): depletion of c-Myc and EZH2 | HSP60-ClpP interaction by co-immunoprecipitation (HSP60-ClpP interaction [2]): inhibited HSP60-ClpP interactions in a dose dependent manner | expression of UPRmt components HSP60, HSP10, ClpP and LONP1 [3]: failed to alter | mtDNA damage (LNCaP and PC-3 cells): Severe mtDNA damage | oxygen consumption rate (OCR) (PC-3 cells): reduction in oxygen consumption rate
